Source: patent US20240122875A1, “USE OF MITOXANTRONE HYDROCHLORIDE LIPOSOME” (CSPC ZHONGQI PHARMACEUTICAL TECHNOLOGY (SHIJIAZHUANG) CO., …, priority 2021, published 2024)
Structures can show the parent of a compound that is named as a salt.

Tested on: recurrent/metastatic breast cancer
Test: Inventor's previous clinical research, monotherapy of recurrent/metastatic breast cancer, liposome versus ordinary injection
Assay type: in vivo, human
Conditions: control group, 14 mg/m^2 every 4 weeks
Method: The inventor's previous clinical research included mitoxantrone hydrochloride monotherapy in the treatment of recurrent/metastatic breast cancer. There were 30 cases in the experimental group and the control group respectively. […] The control group was given mitoxantrone hydrochloride injection in 14 mg/m^2, every 4 weeks as a cycle.

## O=C1c2c(O)ccc(O)c2C(=O)c2c(NCCNCCO)ccc(NCCNCCO)c21 [mitoxantrone hydrochloride injection, mitoxantrone hydrochloride]
2/30
  ORR: 6.7%
9/30
  DCR: 30%
30 cases
  PR: 2 cases
